Consider 14 compounds from PubChem BioAssay (NCI).

Some test systems named below: DU-145 prostate; A549 NSCLC; NCI-H23 lung; HT29 colon; HL-60(TB) leukemia; EKVX NSCLC; UACC-257 melanoma; NCI-H522 lung; IGROV1 ovarian; OVCAR-5 ovarian.
What all share (assay): NCI anticancer screen, dose series, 48 h

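These data come from cells grown in 96-well plates and exposed to compound for 48 hours at five concentrations. TGI: total growth inhibition.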

For the compound `COc1cc2[nH]c(-c3ccccc3)cc(=O)c2cc1OC`, the TGI in the assay with DU-145 prostate was greater than 100 µM; in the assay on A549 NSCLC, greater than 69.8 µM; in the assay on NCI-H23 lung, greater than 84.6 µM; in the assay on HT29 colon it was 56.7 µM; in the assay with HL-60(TB) leukemia, 41 µM; in the assay on EKVX NSCLC it was greater than 100 µM. The TGI with UACC-257 melanoma is greater than 100 µM; in the assay on NCI-H522 lung, greater than 56.3 µM; in the assay with IGROV1 ovarian it was greater than 100 µM; with OVCAR-5 ovarian it was greater than 100 µM.
Consider `N#CC(c1ccccc1)c1cccc2ccccc12` (stereo not given), for which the TGI in the assay with DU-145 prostate was greater than 100 µM; with A549 NSCLC it was 65.1 µM; in the assay with NCI-H23 lung it was greater than 100 µM; in the assay on HT29 colon, greater than 100 µM; with HL-60(TB) leukemia, 57.7 µM; in the assay on EKVX NSCLC, greater than 100 µM. In addition, the TGI in the assay on UACC-257 melanoma is 67.3 µM; in the assay on NCI-H522 lung, 53.9 µM; in the assay with IGROV1 ovarian, greater than 100 µM; in the assay on OVCAR-5 ovarian, greater than 100 µM.
Turning to `COc1ccc2c(c1)CC[C@@H]1[C@@H]2CC[C@]2(C)/C(=N/OCCN3CCCCC3)CC[C@@H]12`, the TGI with DU-145 prostate is 14.7 µM; with A549 NSCLC it was 19.8 µM; in the assay with NCI-H23 lung, 25 µM; with HT29 colon, 3.67 µM; with HL-60(TB) leukemia, 6.35 µM; in the assay with EKVX NSCLC it was 21.5 µM. Further, the TGI in the assay with UACC-257 melanoma amounted to 5.34 µM; with NCI-H522 lung, 18.9 µM; in the assay on IGROV1 ovarian, 5.6 µM; in the assay on OVCAR-5 ovarian it was 16.6 µM.
Turning to `Fc1cccc2nc(-c3ccccc3)cc(OCc3ccccc3)c12`, the TGI with DU-145 prostate, in the assay with A549 NSCLC, in the assay with NCI-H23 lung, with HT29 colon, in the assay on HL-60(TB) leukemia and with EKVX NSCLC was greater than 100 µM each time. Further, the TGI in the assay on UACC-257 melanoma, in the assay with NCI-H522 lung, with IGROV1 ovarian and in the assay on OVCAR-5 ovarian was greater than 100 µM throughout.
For the compound `COc1ccc(-c2cn3c(n2)sc2cc(C)ccc23)cc1`, the TGI in the assay with DU-145 prostate was greater than 100 µM; in the assay with A549 NSCLC it was greater than 100 µM; with NCI-H23 lung, greater than 100 µM; in the assay on HT29 colon, greater than 100 µM; in the assay with HL-60(TB) leukemia, 23 µM; in the assay with EKVX NSCLC, 39.7 µM. Besides, the TGI in the assay on UACC-257 melanoma is 24.2 µM; with NCI-H522 lung, 51.4 µM; with IGROV1 ovarian, 42.1 µM; in the assay with OVCAR-5 ovarian, greater than 100 µM.
As for `O=C1NC(N2CCOCC2)=N/C1=C\c1ccccc1O`, the TGI in the assay on DU-145 prostate, with A549 NSCLC, in the assay on NCI-H23 lung, in the assay on HT29 colon, in the assay with HL-60(TB) leukemia and in the assay with EKVX NSCLC was greater than 100 µM each time. For the same compound, the TGI in the assay on UACC-257 melanoma, with NCI-H522 lung, with IGROV1 ovarian and in the assay with OVCAR-5 ovarian was greater than 100 µM each time.
Regarding `COc1cc(C2c3cc4c(cc3OC(N3CCOCC3)C2C)OCO4)cc(OC)c1O` (stereo not given), the TGI is greater than 100 µM in the assay on DU-145 prostate; greater than 59.9 µM with A549 NSCLC; greater than 100 µM in the assay on NCI-H23 lung; 27.7 µM with HT29 colon; greater than 26 µM in the assay on HL-60(TB) leukemia; greater than 94 µM in the assay on EKVX NSCLC. In addition, the TGI was greater than 100 µM in the assay with UACC-257 melanoma, greater than 20.2 µM in the assay with NCI-H522 lung, greater than 70.8 µM with IGROV1 ovarian and greater than 100 µM with OVCAR-5 ovarian.
Take `O=C1/C(=C/c2cccs2)N=C(c2ccccc2)N1C1Nc2cc3c(cc2S1)NC(N1C(=O)/C(=C/c2cccs2)N=C1c1ccccc1)S3` (stereo not given): the TGI in the assay with DU-145 prostate is greater than 100 µM; in the assay on A549 NSCLC, greater than 100 µM; in the assay with NCI-H23 lung it was 43.6 µM; in the assay with HT29 colon it was greater than 100 µM; with HL-60(TB) leukemia, 39.6 µM; in the assay on EKVX NSCLC, 43.6 µM. Also, the TGI in the assay on UACC-257 melanoma is greater than 100 µM; in the assay with NCI-H522 lung, 31.4 µM; in the assay with IGROV1 ovarian, greater than 100 µM; with OVCAR-5 ovarian, 75 µM.
In the case of `CN(C)Cc1cc(C(=O)/C=C/c2ccc(/C=C/C(=O)c3cc(CN(C)C)c(O)c(CN(C)C)c3)cc2)cc(CN(C)C)c1O`, the TGI is greater than 100 µM with DU-145 prostate; greater than 100 µM in the assay with A549 NSCLC; 55.7 µM in the assay on NCI-H23 lung; 37.7 µM with HT29 colon; 98 µM in the assay with HL-60(TB) leukemia; greater than 100 µM with EKVX NSCLC. Further, the TGI with UACC-257 melanoma is greater than 100 µM; with NCI-H522 lung, 40.1 µM; in the assay on IGROV1 ovarian, greater than 100 µM; in the assay on OVCAR-5 ovarian it was 59.8 µM.
On to `C=C(Br)CN(C#N)CC(=C)Br`, for which the TGI in the assay on DU-145 prostate, in the assay on A549 NSCLC, in the assay with NCI-H23 lung, in the assay with HT29 colon, with HL-60(TB) leukemia and in the assay with EKVX NSCLC was greater than 100 µM each time. Further, the TGI in the assay on UACC-257 melanoma, in the assay on NCI-H522 lung, in the assay with IGROV1 ovarian and with OVCAR-5 ovarian was greater than 100 µM in each case.
For `NC1CCC(c2cc3ccccc3s2)(N2CCCCC2)CC1` (stereo not given), the TGI turned out to be 16.4 µM in the assay with DU-145 prostate; 8.46 µM in the assay on A549 NSCLC; 3.23 µM in the assay on NCI-H23 lung; 2.45 µM in the assay with HT29 colon; 4.58 µM with HL-60(TB) leukemia; 11.9 µM in the assay on EKVX NSCLC. Also, the TGI with UACC-257 melanoma was 3.44 µM; in the assay with NCI-H522 lung, 4.15 µM; in the assay with IGROV1 ovarian, 3.26 µM; in the assay with OVCAR-5 ovarian, 6.23 µM.
In the case of `COC(=O)c1c(O)ccc2c1c1c(n2C)C(=O)c2ccccc2C1=O`, the TGI with DU-145 prostate was 72.7 µM; in the assay with A549 NSCLC it was greater than 100 µM; in the assay with NCI-H23 lung it was 78.2 µM; in the assay on HT29 colon it was greater than 100 µM; in the assay on HL-60(TB) leukemia it was greater than 100 µM; in the assay on EKVX NSCLC, greater than 100 µM. Also, the TGI in the assay with UACC-257 melanoma is greater than 100 µM; in the assay on NCI-H522 lung, greater than 100 µM; in the assay on IGROV1 ovarian, 21.8 µM; with OVCAR-5 ovarian, greater than 100 µM.
Consider `COC(=O)/C=C1/OC(c2ccccc2)=C(Cl)C1=O`, for which the TGI in the assay on DU-145 prostate is greater than 76.2 µM; in the assay with A549 NSCLC, 69.4 µM; in the assay with NCI-H23 lung, 39.4 µM; in the assay on HT29 colon, 48.4 µM; with HL-60(TB) leukemia, 16.2 µM; in the assay on EKVX NSCLC, 44.5 µM. Moreover, the TGI with UACC-257 melanoma is 66 µM; with NCI-H522 lung, 33 µM; with IGROV1 ovarian, 55.8 µM; in the assay with OVCAR-5 ovarian it was 35.6 µM.
Take `CCN(CC)C(=O)CCCCCCCCC1CO1` (stereo not given): the TGI in the assay on DU-145 prostate, in the assay on A549 NSCLC, with NCI-H23 lung, with HT29 colon, in the assay on HL-60(TB) leukemia and with EKVX NSCLC was greater than 100 µM in each case. Also, the TGI in the assay on UACC-257 melanoma, with NCI-H522 lung, in the assay on IGROV1 ovarian and in the assay with OVCAR-5 ovarian was greater than 100 µM each time.
